From ChEMBL document CHEMBL4396868, “Discovery of Potent, Selective, and Brain-Penetrant 1 H-Pyrazol-5-yl-1 H-pyrrolo[2,3- b]pyridines as Anaplastic Lymphoma Kinase (ALK) Inhibitors” (J Med Chem, 2019)
pIC50: −log10 of the molar value.

Assays:
[1] = target: Mitogen-activated protein kinase kinase kinase 5 (Homo sapiens) (UniProt Q99683); assay: (§1) Inhibition of N-terminal FLAG-tagged ASK1 (unknown origin) expressed in baculovirus expression system at 100 nM using myelin basic protein as substrate preincubated for 5 mins followed by [gamma-33P]ATP addition and measured after 60 mins by topcount scintillation counting method relative to control
[2] = target: ALK tyrosine kinase receptor (Homo sapiens, UniProt Q9UM73); type: cell-based, HEK293
Description: Inhibition of recombinant human ALK expressed in HEK293 cells assessed as reduction in ALK autophosphorylation at Tyr1604 residue incubated for 60 mins by sandwich ELISA

[3] = target: Mitogen-activated protein kinase 14 (Homo sapiens) (UniProt Q16539); assay: as §1, with “p38alpha” for “ASK1”
[4] = target: Mitogen-activated protein kinase 3 (Homo sapiens) (UniProt P27361); assay: Inhibition of N-terminal FLAG-tagged ERK1 (unknown origin) expressed in baculovirus expression system at 100 nM using myelin basic protein as substrate preincubated for 5 mins followed by [gamma-33P]ATP addition and measured after 60 mins by topcount scintillation counting method relative to control
[5] = target: Serine/threonine-protein kinase Chk1 (Homo sapiens) (UniProt O14757); assay: Inhibition of CHEK1 (unknown origin) at 100 nM by [gamma-33P]ATP-based radiometric or Alphascreen assay relative to control
[6] = target: Serine/threonine-protein kinase PLK1 (Homo sapiens) (UniProt P53350); assay: Inhibition of N-terminal FLAG-tagged PLK1 (unknown origin) expressed in baculovirus expression system at 100 nM using alpha-casein as substrate preincubated for 5 mins followed by [gamma-33P]ATP addition and measured after 40 mins by topcount scintillation counting method relative to control
[7] = Unbound brain-to-plasma concentration ratio in Jcl-ICR mouse at 100 mg/kg, ip measured at 2 hrs by LC/MS/MS analysis; type: ADME, organism-based; conditions: read-out: K(p,uu,brain)
[8] = target: Protein kinase C theta type (Homo sapiens) (UniProt Q04759); assay: Inhibition of N-terminal FLAG-tagged PKCtheta (unknown origin) expressed in baculovirus expression system at 100 nM using pGS peptide as substrate preincubated for 5 mins followed by [gamma-33P]ATP addition and measured after 30 mins by topcount scintillation counting method relative to control
[9] = target: Vascular endothelial growth factor receptor 2 (Homo sapiens) (UniProt P35968); assay: Inhibition of N-terminal FLAG-tagged VEGFR2 (unknown origin) expressed in baculovirus expression system at 100 nM preincubated for 5 mins followed by ATP addition and measured after 10 mins by alphascreen assay relative to control
[10] = target: Glycogen synthase kinase-3 beta (Homo sapiens) (UniProt P49841); assay: Inhibition of N-terminal FLAG-tagged GSK3beta (unknown origin) expressed in baculovirus expression system at 100 nM using pGS peptide as substrate preincubated for 5 mins followed by [gamma-33P]ATP addition and measured after 30 mins by topcount scintillation counting method relative to control
[11] = target: Cyclin-dependent kinase 2 (Homo sapiens) (UniProt P24941); assay: Inhibition of CDK2 (unknown origin) at 100 nM by [gamma-33P]ATP-based radiometric or Alphascreen assay relative to control
[12] = target: Proto-oncogene tyrosine-protein kinase Src (Homo sapiens) (UniProt P12931); assay: Inhibition of recombinant human full-length N-terminal His6-tagged SRC expressed in Sf21 insect cells at 100 nM preincubated for 5 mins followed by ATP addition and measured after 10 mins by alphascreen assay relative to control
[13] = target: Rho-associated protein kinase 1 (Homo sapiens) (UniProt Q13464); assay: Inhibition of ROCK1 (unknown origin) at 100 nM by [gamma-33P]ATP-based radiometric or Alphascreen assay relative to control
[14] = target: Ephrin type-A receptor 5 (Homo sapiens) (UniProt P54756); assay: Inhibition of EPHA5 (unknown origin) at 100 nM by [gamma-33P]ATP-based radiometric or Alphascreen assay relative to control
[15] = Fraction unbound in ICR mouse plasma at 1 umol/L measured for 20 hrs by equilibrium dialysis based LC-MS/MS analysis; type: ADME, cell-free; conditions: 1 µM
[16] = Drug level in Jcl-ICR mouse brain at 100 mg/kg, ip measured at 0.5 hrs by LC/MS/MS analysis; type: ADME, organism-based; conditions: read-out: Drug uptake
[17] = target: Epidermal growth factor receptor (Homo sapiens) (UniProt P00533); assay: Inhibition of human N-terminal DYKDDDD-tagged EGFR cytoplasmic domain (669 to 1210 residues) expressed in baculovirus expression system at 100 nM using poly-Glu-Tyr(4:1) as substrate preincubated for 5 mins followed by [gamma-33P]ATP addition and measured after 10 mins by topcount scintillation counting method relative to control

Chain of Protein kinase C theta type (Homo sapiens) (Q04759 whole entry, looked up): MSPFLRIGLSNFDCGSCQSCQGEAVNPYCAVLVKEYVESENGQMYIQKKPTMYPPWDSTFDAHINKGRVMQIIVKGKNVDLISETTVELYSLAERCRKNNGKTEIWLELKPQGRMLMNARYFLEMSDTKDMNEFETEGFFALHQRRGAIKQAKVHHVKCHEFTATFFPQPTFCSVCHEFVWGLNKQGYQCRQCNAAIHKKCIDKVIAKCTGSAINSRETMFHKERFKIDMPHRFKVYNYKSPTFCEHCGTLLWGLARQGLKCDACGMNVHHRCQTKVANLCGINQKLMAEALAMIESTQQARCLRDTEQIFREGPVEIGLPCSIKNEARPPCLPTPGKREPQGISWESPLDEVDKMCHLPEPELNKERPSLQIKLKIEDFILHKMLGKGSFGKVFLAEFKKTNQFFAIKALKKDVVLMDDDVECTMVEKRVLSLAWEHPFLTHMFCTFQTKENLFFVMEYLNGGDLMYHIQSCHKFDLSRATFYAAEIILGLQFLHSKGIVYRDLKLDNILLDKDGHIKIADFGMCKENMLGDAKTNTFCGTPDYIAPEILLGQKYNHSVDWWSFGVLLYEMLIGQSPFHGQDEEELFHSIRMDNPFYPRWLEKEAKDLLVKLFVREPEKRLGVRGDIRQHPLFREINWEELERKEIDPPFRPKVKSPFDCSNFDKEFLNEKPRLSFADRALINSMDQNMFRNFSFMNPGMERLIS
Chain of Mitogen-activated protein kinase kinase kinase 5 (Homo sapiens) (Q99683 whole entry): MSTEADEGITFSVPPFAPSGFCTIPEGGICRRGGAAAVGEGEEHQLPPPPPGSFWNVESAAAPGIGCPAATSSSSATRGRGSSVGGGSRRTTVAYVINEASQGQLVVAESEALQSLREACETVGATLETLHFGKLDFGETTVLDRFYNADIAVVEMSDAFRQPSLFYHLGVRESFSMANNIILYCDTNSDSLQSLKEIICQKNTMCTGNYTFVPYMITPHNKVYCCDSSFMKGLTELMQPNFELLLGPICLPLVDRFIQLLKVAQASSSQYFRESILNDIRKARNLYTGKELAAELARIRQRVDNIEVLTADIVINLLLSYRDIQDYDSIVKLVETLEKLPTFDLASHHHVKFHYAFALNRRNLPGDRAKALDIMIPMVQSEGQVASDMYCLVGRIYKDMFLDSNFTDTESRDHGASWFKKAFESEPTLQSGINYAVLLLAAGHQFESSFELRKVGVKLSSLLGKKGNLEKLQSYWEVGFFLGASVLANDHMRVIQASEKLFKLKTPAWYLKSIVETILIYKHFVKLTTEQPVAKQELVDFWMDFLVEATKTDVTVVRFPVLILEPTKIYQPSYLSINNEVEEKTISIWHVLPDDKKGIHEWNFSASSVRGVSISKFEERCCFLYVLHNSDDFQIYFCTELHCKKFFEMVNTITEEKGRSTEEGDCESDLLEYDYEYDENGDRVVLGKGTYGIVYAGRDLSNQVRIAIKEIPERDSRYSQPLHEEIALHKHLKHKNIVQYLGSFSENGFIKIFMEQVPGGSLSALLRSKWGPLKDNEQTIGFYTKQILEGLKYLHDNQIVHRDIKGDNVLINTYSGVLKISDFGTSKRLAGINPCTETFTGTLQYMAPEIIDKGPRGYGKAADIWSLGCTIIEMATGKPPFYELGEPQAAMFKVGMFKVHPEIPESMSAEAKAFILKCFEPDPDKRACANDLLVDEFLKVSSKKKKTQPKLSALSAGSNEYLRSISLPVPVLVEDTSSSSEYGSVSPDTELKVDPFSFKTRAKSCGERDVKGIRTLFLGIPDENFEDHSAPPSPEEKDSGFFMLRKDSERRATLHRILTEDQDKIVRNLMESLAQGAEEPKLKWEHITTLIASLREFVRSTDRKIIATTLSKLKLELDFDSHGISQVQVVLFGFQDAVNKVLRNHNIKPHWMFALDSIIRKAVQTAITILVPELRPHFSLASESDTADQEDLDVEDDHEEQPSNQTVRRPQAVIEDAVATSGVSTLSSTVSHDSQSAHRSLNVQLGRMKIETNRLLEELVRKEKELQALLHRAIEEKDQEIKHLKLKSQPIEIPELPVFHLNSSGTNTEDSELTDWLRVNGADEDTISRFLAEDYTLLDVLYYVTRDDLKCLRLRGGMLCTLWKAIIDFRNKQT
Chain of Vascular endothelial growth factor receptor 2 (Homo sapiens) (P35968 whole entry): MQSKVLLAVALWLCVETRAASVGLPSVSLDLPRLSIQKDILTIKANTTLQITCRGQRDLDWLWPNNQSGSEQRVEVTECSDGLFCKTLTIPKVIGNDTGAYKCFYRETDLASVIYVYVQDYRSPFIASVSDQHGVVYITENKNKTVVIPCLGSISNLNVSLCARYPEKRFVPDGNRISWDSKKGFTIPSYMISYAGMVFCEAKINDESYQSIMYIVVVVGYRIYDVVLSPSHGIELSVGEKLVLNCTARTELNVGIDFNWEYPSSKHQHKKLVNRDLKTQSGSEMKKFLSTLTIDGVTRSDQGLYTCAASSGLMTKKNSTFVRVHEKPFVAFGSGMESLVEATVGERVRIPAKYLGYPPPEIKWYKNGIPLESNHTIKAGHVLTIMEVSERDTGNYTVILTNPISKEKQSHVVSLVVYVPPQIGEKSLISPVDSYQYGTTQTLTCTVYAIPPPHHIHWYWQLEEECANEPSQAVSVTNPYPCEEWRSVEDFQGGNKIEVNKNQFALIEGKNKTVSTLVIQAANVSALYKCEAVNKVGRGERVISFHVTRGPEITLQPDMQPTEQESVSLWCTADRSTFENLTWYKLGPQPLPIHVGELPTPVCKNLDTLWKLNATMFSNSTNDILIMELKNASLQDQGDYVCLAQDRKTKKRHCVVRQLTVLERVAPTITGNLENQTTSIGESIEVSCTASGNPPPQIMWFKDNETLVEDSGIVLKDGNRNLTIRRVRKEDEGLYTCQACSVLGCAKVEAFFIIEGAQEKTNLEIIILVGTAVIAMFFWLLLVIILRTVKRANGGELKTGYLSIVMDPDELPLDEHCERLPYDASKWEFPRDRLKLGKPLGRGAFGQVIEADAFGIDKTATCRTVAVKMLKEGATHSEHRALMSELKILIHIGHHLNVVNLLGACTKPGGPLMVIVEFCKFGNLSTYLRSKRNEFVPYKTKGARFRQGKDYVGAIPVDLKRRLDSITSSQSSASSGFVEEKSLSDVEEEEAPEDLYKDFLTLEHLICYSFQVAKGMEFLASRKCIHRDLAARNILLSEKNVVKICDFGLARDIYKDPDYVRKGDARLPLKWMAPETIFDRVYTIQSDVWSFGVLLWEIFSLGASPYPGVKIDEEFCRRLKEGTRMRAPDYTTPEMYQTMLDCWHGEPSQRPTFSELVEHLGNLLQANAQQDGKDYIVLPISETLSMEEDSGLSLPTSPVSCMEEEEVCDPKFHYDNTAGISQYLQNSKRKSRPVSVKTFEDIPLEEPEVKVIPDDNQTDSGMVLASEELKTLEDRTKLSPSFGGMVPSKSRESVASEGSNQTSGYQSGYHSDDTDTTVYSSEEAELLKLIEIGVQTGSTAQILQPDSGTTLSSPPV
Chain of Serine/threonine-protein kinase PLK1 (Homo sapiens) (P53350 whole entry): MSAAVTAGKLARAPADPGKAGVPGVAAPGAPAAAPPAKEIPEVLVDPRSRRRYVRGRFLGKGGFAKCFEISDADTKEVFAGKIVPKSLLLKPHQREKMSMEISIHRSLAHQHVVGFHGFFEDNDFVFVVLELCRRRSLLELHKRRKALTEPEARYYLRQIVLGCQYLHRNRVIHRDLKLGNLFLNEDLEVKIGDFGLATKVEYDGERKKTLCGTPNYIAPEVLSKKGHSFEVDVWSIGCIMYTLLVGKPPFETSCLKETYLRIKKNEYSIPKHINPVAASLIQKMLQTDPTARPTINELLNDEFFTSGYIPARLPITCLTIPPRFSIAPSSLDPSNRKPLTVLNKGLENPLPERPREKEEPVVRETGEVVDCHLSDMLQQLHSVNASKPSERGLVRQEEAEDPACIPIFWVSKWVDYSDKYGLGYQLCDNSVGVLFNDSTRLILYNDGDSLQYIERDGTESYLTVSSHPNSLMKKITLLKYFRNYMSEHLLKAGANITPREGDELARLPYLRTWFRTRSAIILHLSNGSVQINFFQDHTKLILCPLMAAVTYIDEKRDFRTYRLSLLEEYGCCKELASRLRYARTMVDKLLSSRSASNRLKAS
Chain of Proto-oncogene tyrosine-protein kinase Src (Homo sapiens) (P12931 2-536 limits assumed): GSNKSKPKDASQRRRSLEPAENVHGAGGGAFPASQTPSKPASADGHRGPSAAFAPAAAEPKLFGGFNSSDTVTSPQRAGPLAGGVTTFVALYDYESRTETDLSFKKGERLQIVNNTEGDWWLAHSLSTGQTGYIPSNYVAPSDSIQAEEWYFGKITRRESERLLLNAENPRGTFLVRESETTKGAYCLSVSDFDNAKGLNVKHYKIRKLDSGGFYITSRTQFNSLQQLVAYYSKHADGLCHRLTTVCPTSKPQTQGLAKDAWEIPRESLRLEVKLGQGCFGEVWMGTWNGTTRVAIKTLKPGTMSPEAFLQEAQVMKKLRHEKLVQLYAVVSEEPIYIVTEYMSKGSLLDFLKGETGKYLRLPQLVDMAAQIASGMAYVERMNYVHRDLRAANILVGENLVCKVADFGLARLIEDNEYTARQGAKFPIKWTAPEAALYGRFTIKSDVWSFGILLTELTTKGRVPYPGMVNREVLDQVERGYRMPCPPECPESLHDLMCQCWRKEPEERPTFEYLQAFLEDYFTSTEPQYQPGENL
Chain of Glycogen synthase kinase-3 beta (Homo sapiens) (P49841 whole entry, looked up): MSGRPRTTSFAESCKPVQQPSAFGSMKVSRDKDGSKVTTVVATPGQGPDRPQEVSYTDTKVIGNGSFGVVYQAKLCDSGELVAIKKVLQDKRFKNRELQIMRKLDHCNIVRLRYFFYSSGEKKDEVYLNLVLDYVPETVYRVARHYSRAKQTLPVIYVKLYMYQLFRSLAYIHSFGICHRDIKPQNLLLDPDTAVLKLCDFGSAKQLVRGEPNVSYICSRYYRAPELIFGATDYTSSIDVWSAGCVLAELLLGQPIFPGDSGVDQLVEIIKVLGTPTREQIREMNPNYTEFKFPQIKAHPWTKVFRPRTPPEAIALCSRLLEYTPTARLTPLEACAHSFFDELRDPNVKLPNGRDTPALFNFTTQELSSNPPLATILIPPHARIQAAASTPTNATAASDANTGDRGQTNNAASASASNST

inhibition [1]: -1%
pIC50 [2]: 7.57
inhibition [3]: -4%
inhibition [4]: 3%
inhibition [5]: -9%
inhibition [6]: 5%
Kp uu at 2 h [7]: 0.11
inhibition [8]: 2%
inhibition [9]: 2%
inhibition [10]: 3%
inhibition [11]: 5%
inhibition [12]: -2%
inhibition [13]: -5%
inhibition [14]: -2%
Fu [15]: 0.08%
concentration at 0.5 h [16]: 33000 ng/mL
inhibition [17]: -1%
Compound: Cc1cc(-n2cc(C(=O)N3CCO[C@@H](C)C3)c3ccc(O[C@@H](C)c4ccc(F)cn4)nc32)n[nH]1
